Source: patent US20210008161A1, “METHODS AND COMPOSITIONS FOR IMPROVED HOMOLOGY DIRECTED REPAIR” (CRISPR THERAPEUTICS AG, priority 2019, published 2021)

Columns and labels:
[1] = system: HEK293 T cells; assay: BFP to GFP fluorescent reporter assay of HDR efficiency (AAVS1 locus); assay type: cell-based, human; details: different concentrations/doses, FIG. 1B, 1C
Procedure: An in vitro assay was conducted to determine the ability of various inhibitors and enhancers to improve the efficiency of HDR repair in HEK293 T cells. Specifically, a fluorescent reporter-based screening approach was developed to identify molecules that enhance gene-editing by HDR. A reporter system was generated in HEK293 T cells comprising a genomic AAVS1 locus that encoded either a blue fluorescent protein (BFP) or a green fluorescent protein (GFP) within the AAVS1 locus. A gene encoding BFP can be converted to a gene encoding GFP by substitution of cytosine at position 199 to uridine (e.g., a C to U transition at position 199). By introducing a DSB within the BFP gene using a CRISPR/Cas9 gene-editing system, a homology donor DNA encoding the nucleotide substitution can be used to edit the BFP gene to a GFP gene by HDR repair. Thus, a gene edit that induces a C to U transition at position 199 results in a change in cellular fluorescence. A change in the fluorescence of the cell measured by flow cytometry can be used to quantify efficiency of HDR repair. Additionally, the reverse gene edit can be performed for an AAVS1 locus encoding a GFP gene, wherein a GFP can be converted to BFP by substitution of uridine at position 199 to cytosine.
To create the reporter system, an AAV-based homology donor DNA encoding either BFP or GFP was created. The AAV-BFP or AAV-GFP donor was flanked by homology arms that were 1000 base pairs in length and expression of BFP or GFP was driven by the MND promoter (e.g., a synthetic promoter that contains the U3 region of a modified Moloney murine leukemia virus long term terminal repeat with myeloproliferative sarcoma virus enhancer and deleted negative control region, SEQ ID NO: 58). The viral DNA was packaged into capsids of adeno-associated virus serotype 6 (AAV6) vector. Either the BFP or GFP donor was introduced using the AAV6 vector into the AAVS1 locus in HEK293 T cells by homologous recombination using CRISPR-Cas9 as follows: purified Cas9 protein was complexed with two different single gRNAs (sgRNAs) targeting the AAVS1 locus at SEQ ID NO: 3 (spacer sequence identified by SEQ ID NO: 4; gRNA obtained from Maxcyte) or SEQ ID NO: 5 (spacer sequence identified by SEQ ID NO: 6; gRNA obtained from Thermo Fisher). Cas9 protein used in the Exemplary section provided herein refers to Cas9 polypeptide derived from S. pyogenes (SpCas9), unless indicated otherwise.
The Cas9-sgRNA complex was electroporated into the HEK293 T cells using the Lonza Nucleofector program CM-130. Approximately, 2 hours after electroporation, the cells were infected with various viral doses of AAV6 encoding a BFP (SEQ ID NO: 44) or GFP homology donor (SEQ ID NO: 47). One week later, cells were analyzed by flow cytometry to verify integration and expression of BFP or GFP in the AAVS1 locus. HEK293 T cells expressing BFP or GFP were sorted into single cells in 96-well plates. After ˜2 weeks of growth, DNA extracted from individual cells was analyzed for precise integration of the respective BFP or GFP gene into the AAVS1 locus by long-range PCR. This PCR analysis allowed for determination of whether the BFP/GFP gene was integrated in one or both alleles of the AAVS1 locus.
To introduce a gene edit that converts BFP to GFP, cells were electroporated with ribonucleoprotein (RNP) comprised of Cas9 and sgRNA that targets the BFP gene encoded in the AAVS1 locus. The sgRNA targeted a sequence in the BFP gene identified by SEQ ID NO: 7 (sgRNA spacer sequence identified by SEQ ID NO: 8). The sgRNA were prepared using a standard sgRNA cassette specific to SpCas9, as indicated by SEQ ID NO: 2 (wherein a, c, g, u represent 2′ O-methyl phosphorothioate nucleotides; s represents phosphorothioate nucleotides; and A, C, G, U, N represent canonical RNA nucleotides). The gRNAs used in the Exemplary section provided herein were sgRNAs prepared with the SpCas9 sgRNA cassette unless indicated otherwise. […]

[2] = system: CD34-expressing LT-HSPCs; assay: HDR insertion of AAV-delivered GFP donor into HBB locus (GFP fluorescence); assay type: cell-based, human; details: HBB locus in LT-HSPCs; any dose tested; data not shown
Procedure: Frozen CD34-expressing LT-HSPCs derived from plerixafor (i.e., Mozibil®)+GCSF-dual mobilized peripheral blood obtained from healthy human donors were purchased from a commercial vendor. LT-HSPCs were maintained in culture media comprised of the reagents shown in Table 4 and were incubated at 37° C., 5% carbon dioxide, 4% oxygen. […] 2×10^5 cells were edited with 3 μg Cas9 and 3 μg gRNA. The target gene sequence (including target sequence with PAM), R02 spacer sequence, and R02 sgRNA sequence are identified in Table 3.
The cells were transfected with a dsDNA homology donor encoding GFP under a SFFV promoter (SEQ ID NO: 60) that was delivered by AAV (SEQ ID NO: 56). […] The HDR efficiency was determined by measuring the level of GFP fluorescence in the cells following electroporation. To determine the effect of 53BP1 inhibition on HDR efficiency, the 53BP1 inhibitor i53 was introduced as an mRNA-encoded protein to the cells during electroporation with Cas9/gRNA RNP and AAV DNA that serves as a donor for homology directed repair.
The effect of 53BP1 inhibition on HDR efficiency was compared to other mRNA-encoded proteins that inhibit the NHEJ pathway. These included the proteins CYREN1 and CYREN2 that inhibit Ku70/80, a heterodimer that binds DNA blunt ends to prevent processing of 3′ single-stranded DNA tails necessary for HDR repair. Cells were electroporated with RNP, an AAV-GFP homology donor and mRNA encoding either i53 (mRNA ORF shown in SEQ ID NO: 69), CYREN1, or CYREN2.
The effect of treatment with i53 and Nu7441 was compared for improving efficiency of HDR repair of the HBB locus. Cells were treated with different doses of Nu7441 or with mRNA encoding i53 (ORF shown by SEQ ID NO: 69).

CCCCCCNC(=O)Nc1ccc(S(=O)(=O)Nc2ccc(CCNC[C@H](O)COc3ccc(O)cc3)cc2)cc1 [L755,507]
HDR efficiency [1]: no improvement

C[C@]1(c2nc3c(C(N)=O)cccc3[nH]2)CCCN1 [Veliparib]
HDR efficiency [1]: no improvement

Cl.O=c1[nH]c([C@@H]2CCCN2)nc2c1oc1ccc(Cl)cc12 [XL 413, reference compound]
HDR efficiency [2]: no improvement
